{"source": "patent US9956319B2", "about": "“Compositions useful as antibiofilm or antimicrobial agents and methods using same” (BAYLOR COLLEGE OF MEDICINE, priority 2012, dated 2018)", "format_in_all_cases": "cell-based", "key": {"Escherichia coli": {"test_system": "Escherichia coli", "assay": "Zones of inhibition of impregnated catheter segments, modified Kirby-Bauer method", "experimental": "(§1) To evaluate the antimicrobial activity of central venous catheters treated with α-lipoic acid or its combination with gentamicin, segments of 7 French triple lumen polyurethane central venous catheters were impregnated with α-lipoic acid, gentamicin, or the combination of lipoic acid and gentamicin using the same patented method described in Example 1 with 50 mg/ml of each agent (for the final solution volume). After the impregnation process and drying, zones of inhibition were performed on one-centimeter segments according to a modified Kirby-Bauer method against MSSE, MRSE, MRSA, K. pneumoniae, E. coli, P. mirabilis, Pseudomonas aeruginosa, and Candida albicans. Each segment was half embedded in the center of a Muller-Hinton agar plate that had been previously inoculated with an individual organism. Prior to placing the catheter segments in agar, each organism was grown for 18 hours in TSB to a concentration of 0.5 McFarland (10^8 cfu/ml). A cotton swab was placed in the suspension and streaked across the surface of the Muller-Hinton agar plate to cover the entire plate. All plates were placed in a 37° C. incubator for 24 hours. Zones were measured in mm after the incubation period (Table 2).\n(§2) To evaluate the antimicrobial activity of central venous catheters treated with α-lipoic acid or its combination with doxycycline, segments of 7 French triple lumen polyurethane central venous catheters were impregnated with doxycycline or the combinations of α-lipoic acid and doxycycline using the same patented method described in Example 1 (U.S. Pat. No. 6,589,591) with 50 mg/ml of each agent (for the final solution volume). After the impregnation process and drying, zones of inhibition were performed on one-centimeter segments according to a modified Kirby-Bauer method against MSSE, MRSE, MRSA, K. pneumoniae, E. coli, P. aeruginosa, P. mirabilis, and C. albicans as described in Example 2. Zones of inhibition were measured in mm after the incubation period (Table 3).\n(§3) To evaluate the antimicrobial activity of central venous catheters treated with lipoamide or its combination with levofloxacin, segments of 7 French triple lumen polyurethane central venous catheters were impregnated with levofloxacin or the combinations of lipoamide and levofloxacin using the same patented method described in Example 1 (U.S. Pat. No. 6,589,591) with 100 mg/ml (final solution volume) of each agent. After the impregnation process and drying, zones of inhibition were performed on one-centimeter segments according to a modified Kirby-Bauer method against MSSE, MRSE, MRSA, vancomycin-resistant Enterococcus (VRE), K. pneumoniae, E. coli, P. aeruginosa, P. mirabilis, and C. albicans as described in Example 2. Zones of inhibition were measured in mm after the incubation period (Table 4).\nas §3, with “doxycycline,” for “levofloxacin,”, “doxycycline” for “levofloxacin”, “5).” for “4).”\n(§4) To evaluate the antimicrobial activity of central venous catheters treated with dihydrolipoic acid, segments of 7 French triple lumen polyurethane central venous catheters were impregnated with dihydrolipoic acid using the same patented method described in Example 1 (U.S. Pat. No. 6,589,591) with 25 mg/ml (final solution volume) of the agent. […]"}, "Proteus mirabilis": {"test_system": "Proteus mirabilis", "assay": "Zones of inhibition of impregnated catheter segments, modified Kirby-Bauer method", "experimental": "as §1, §2, §3\nas §3, with “doxycycline,” for “levofloxacin,”, “doxycycline” for “levofloxacin”, “5).” for “4).”\nas §4"}, "[1]": {"test_system": "methicillin-resistant Staphylococcus aureus (MRSA)", "assay": "Bacterial colony counts extracted from impregnated central venous catheters after incubation in bacterial suspension", "conditions": "10^5 cfu/ml suspension in TSB, 37° C., 24 hours", "experimental": "(§5) In this example, segments of 7 French triple lumen polyurethane central venous catheters were impregnated with α-lipoic acid using the method described elsewhere (U.S. Pat. No. 6,589,591) and were subjected to zones of inhibition. Briefly, α-lipoic acid was dissolved in 88% formic acid (at a final solution concentration of 50 mg/ml). 85% ortho-Phosphoric acid and glycerol were then added to the solution at 79:8:13 (v/v/v) (formic acid:ortho-phosphoric acid:glycerol). After mixing the solution, 300 mg/ml of potassium chloride was added to the final solution and mixed.\n(§6) Catheter segments were then placed in the impregnating solution at 55° C. with agitation for 1 hour in the dark. Catheter segments were then removed from the solution and dried under a fume hood overnight in the dark. Catheter segments were rinsed with deionized water the next day and let dry for another 18 hours in the dark. After the impregnation process and drying, one-centimeter segments of impregnated catheters were individually placed in 1 ml of 10^5 cfu/ml suspensions of methicillin-sensitive Staphylococcus epidermidis (MSSE), methicillin-resistant Staphylococcus epidermidis (MRSE), methicillin-resistant Staphylococcus aureus (MRSA), Klebsiella pneumoniae, Escherichia coli, or Proteus mirabilis in trypticase soy broth (TSB) at 37° C. for 24 hours. One-centimeter segments of non-impregnated catheters were also incubated individually in each bacterial suspension at 37° C. for 24 hours as controls. Catheter segments were removed from each bacterial suspension after this period, shaken to remove excess broth containing free-floating bacteria from their surfaces, placed in 1 ml of normal saline, sonicated for 5 minutes, and vortexed for 30 seconds.\n(§7) Aliquots of each suspension and subsequent dilutions were cultured quantitatively.\n(§8) To evaluate the anticolonization/antimicrobial activity of central venous catheters treated with lipoamide, segments of 7 French triple lumen polyurethane central venous catheters were impregnated with lipoamide using the same patented method described in Example 1 (U.S. Pat. No. 6,589,591) with 100 mg/ml (final solution volume) of the agent. After the impregnation process and drying, Catheter segments were then placed in the impregnating solution at 55° C. with agitation for 1 hour in the dark. Catheter segments were then removed from the solution and dried under a fume hood overnight in the dark. Catheter segments were rinsed with deionized water the next day and let dry for another 18 hours in the dark. After the impregnation process and drying, one-centimeter segments of impregnated catheters were individually placed in 1 ml of 10^5 cfu/ml suspensions of MRSE, MRSA, or P. aeruginosa in trypticase soy broth (TSB) at 37° C. for 24 hours. One-centimeter segments of non-impregnated catheters were also incubated individually in each bacterial suspension at 37° C. for 24 hours as controls. Catheter segments were removed from each bacterial suspension after this period, shaken to remove excess broth containing free-floating bacteria from their surfaces, placed in 1 ml of normal saline, sonicated for 5 minutes, and vortexed for 30 seconds.\n(§9) To evaluate the anticolonization/antimicrobial activity of central venous catheters treated with dihydrolipoic acid, segments of 7 French triple lumen polyurethane central venous catheters were impregnated with dihydrolipoic acid using the same patented method described in Example 1 (U.S. Pat. No. 6,589,591) with 25 mg/ml (final solution volume) of the agent. After the impregnation process and drying, Catheter segments were then placed in the impregnating solution at 55° C. with agitation for 1 hour in the dark. Catheter segments were then removed from the solution and dried under a fume hood overnight in the dark. Catheter segments were rinsed with deionized water the next day and let dry for another 18 hours in the dark. […]"}, "[2]": {"test_system": "methicillin-resistant Staphylococcus epidermidis (MRSE)", "assay": "Bacterial colony counts extracted from impregnated central venous catheters after incubation in bacterial suspension", "conditions": "10^5 cfu/ml suspension in TSB, 37° C., 24 hours", "experimental": "as §5, §6, §7, §8, §9"}, "[3]": {"conditions": "catheter impregnated with 25 mg/ml of the agent"}, "[4]": {"conditions": "catheter impregnated with 25 mg/ml"}, "[5]": {"conditions": "catheter impregnated with 100 mg/ml of each agent"}, "[6]": {"conditions": "catheter impregnated with 100 mg/ml"}, "[7]": {"conditions": "catheter impregnated with 50 mg/ml of each agent, 37° C., 24 hours"}, "[8]": {"conditions": "catheter impregnated with 50 mg/ml"}}}
{"molecule": "O=C(O)CCCCC(S)CCS", "note": "(stereo not drawn) [Dihydrolipoic acid, 6,8-dimercaptooctanoic acid]", "values": [{"measurement": "Zones of inhibition", "setting": "Escherichia coli; [3]", "result": 0, "unit": "mm"}, {"measurement": "Zones of inhibition", "setting": "Proteus mirabilis; [3]", "result": 0, "unit": "mm"}, {"measurement": "Mean bacterial colony counts extracted from catheter", "setting": "[1]; [4]", "result": 50}, {"measurement": "Mean bacterial colony counts extracted from catheter", "setting": "[2]; [4]", "result": 380}]}
{"molecule": "NC(=O)CCCCC1CCSS1", "note": "(stereo not drawn) [Lipoamide, lipoamide]", "values": [{"measurement": "zone of inhibition at 100000 µg/mL", "setting": "Escherichia coli; [5]", "result": 10, "unit": "mm"}, {"measurement": "zone of inhibition at 100000 µg/mL", "setting": "Proteus mirabilis; [5]", "result": 13, "unit": "mm"}, {"measurement": "Mean bacterial colony counts extracted from catheter", "setting": "[1]; [6]", "result": 0}, {"measurement": "Mean bacterial colony counts extracted from catheter", "setting": "[2]; [6]", "result": 0}]}
{"molecule": "O=C(O)CCCCC1CCSS1", "note": "(stereo not drawn) [Lipoic acid, 1,2-dithiolane-3-pentanoic acid]", "values": [{"measurement": "zone of inhibition at 50000 µg/mL", "setting": "Escherichia coli; [7]", "result": 12, "unit": "mm"}, {"measurement": "zone of inhibition at 50000 µg/mL", "setting": "Proteus mirabilis; [7]", "result": 12, "unit": "mm"}, {"measurement": "Bacterial colony counts extracted from central venous catheters", "setting": "[1]; [8]", "result": 0}, {"measurement": "Bacterial colony counts extracted from central venous catheters", "setting": "[2]; [8]", "result": 60}]}
